Assay results taken from patent US7820665B2, “Imidazopyridazine inhibitors of PI3 kinase for cancer treatment” (Amgen Inc., priority 2007, dated 2010).

Tests used:
PI3Kα = target: T1, PI3Kα (Homo sapiens, UniProt P42336); experiment: In vitro PI3 kinase enzyme assay (PI3K ATPLoss); assay type: biochemical; details: recombinant p110α/p85, residual ATP by bioluminescence
T1 construct: Full length p110 subunits of PI3K α, β and δ, N-terminally labeled with polyHis tag; polyHis (N); made in house; host or cells: Sf9 insect cells (baculovirus)
T1 sequence (P42336 whole entry, species assumed): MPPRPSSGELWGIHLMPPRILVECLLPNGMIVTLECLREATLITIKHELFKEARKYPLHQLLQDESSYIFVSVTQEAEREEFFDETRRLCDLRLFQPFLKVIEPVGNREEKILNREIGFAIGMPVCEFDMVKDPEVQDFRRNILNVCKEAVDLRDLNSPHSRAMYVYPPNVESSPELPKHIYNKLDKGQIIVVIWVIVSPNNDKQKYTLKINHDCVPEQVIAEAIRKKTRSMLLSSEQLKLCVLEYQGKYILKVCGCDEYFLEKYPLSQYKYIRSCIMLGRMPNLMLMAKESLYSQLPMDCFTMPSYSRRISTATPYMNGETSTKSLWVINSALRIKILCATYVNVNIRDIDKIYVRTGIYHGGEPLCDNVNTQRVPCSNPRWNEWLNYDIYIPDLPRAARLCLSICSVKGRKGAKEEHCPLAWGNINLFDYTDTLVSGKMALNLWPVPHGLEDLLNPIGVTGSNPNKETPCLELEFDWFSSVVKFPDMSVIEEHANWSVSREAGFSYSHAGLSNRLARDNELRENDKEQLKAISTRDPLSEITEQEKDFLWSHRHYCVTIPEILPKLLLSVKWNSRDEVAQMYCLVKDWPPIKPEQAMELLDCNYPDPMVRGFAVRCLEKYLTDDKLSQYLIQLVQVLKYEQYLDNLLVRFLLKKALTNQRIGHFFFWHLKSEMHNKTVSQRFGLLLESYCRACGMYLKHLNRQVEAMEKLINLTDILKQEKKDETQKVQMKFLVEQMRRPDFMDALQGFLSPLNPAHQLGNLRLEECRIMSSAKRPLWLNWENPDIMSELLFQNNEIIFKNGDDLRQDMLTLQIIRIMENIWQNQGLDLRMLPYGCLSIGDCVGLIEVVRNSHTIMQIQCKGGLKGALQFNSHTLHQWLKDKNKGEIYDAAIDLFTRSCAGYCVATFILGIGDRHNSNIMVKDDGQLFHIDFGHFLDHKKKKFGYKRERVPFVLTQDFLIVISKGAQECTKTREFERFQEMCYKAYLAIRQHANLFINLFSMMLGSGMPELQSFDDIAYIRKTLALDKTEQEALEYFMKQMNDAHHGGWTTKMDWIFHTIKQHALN
T1 sequence (P27986 whole entry partner, species assumed): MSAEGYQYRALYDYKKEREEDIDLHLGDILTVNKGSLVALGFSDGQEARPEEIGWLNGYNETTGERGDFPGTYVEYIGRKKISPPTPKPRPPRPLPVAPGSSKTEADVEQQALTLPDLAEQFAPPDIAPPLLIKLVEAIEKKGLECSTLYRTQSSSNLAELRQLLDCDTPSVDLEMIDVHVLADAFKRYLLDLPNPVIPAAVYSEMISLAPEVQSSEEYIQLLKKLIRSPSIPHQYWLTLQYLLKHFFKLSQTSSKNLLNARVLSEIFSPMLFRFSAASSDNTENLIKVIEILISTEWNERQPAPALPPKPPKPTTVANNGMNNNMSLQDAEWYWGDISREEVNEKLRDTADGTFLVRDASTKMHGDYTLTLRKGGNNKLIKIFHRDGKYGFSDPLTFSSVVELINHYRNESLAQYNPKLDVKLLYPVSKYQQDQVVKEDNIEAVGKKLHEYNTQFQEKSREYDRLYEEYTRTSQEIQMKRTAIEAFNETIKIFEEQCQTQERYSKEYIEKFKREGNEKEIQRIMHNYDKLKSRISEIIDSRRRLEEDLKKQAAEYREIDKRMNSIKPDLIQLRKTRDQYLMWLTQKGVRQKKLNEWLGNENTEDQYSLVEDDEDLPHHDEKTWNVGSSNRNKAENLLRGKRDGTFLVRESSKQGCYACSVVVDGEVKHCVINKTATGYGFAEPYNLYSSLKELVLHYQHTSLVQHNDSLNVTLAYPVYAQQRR
Experimental: Full length p110 subunits of PI3K α, β and δ, N-terminally labeled with polyHis tag, can be co-expressed with p85 with Baculo virus expression vectors in sf9 insect cells. P110/p85 heterodimers can be purified by sequential Ni-NTA, Q-HP, Superdex-100 chromatography. Purified α, β and δ isozymes can be stored at −20° C. in 20 mM Tris, pH 8, 0.2M NaCl, 50% glycerol, 5 mM DTT, 2 mM Na cholate. Truncated PI3Kγ, residues 114-1102, N-terminally labeled with polyHis tag, can be expressed with Baculo virus in Hi5 insect cells. The γ isozyme can be purified by sequential Ni-NTA, Superdex-200, Q-HP chromatography. The γ isozyme can be stored frozen at −80° C. in NaH2PO4, pH 8, 0.2M NaCl, 1% ethylene glycol, 2 mM β-mercaptoethanol.
PI3K enzyme assays (alpha, beta, delta and gamma) can be performed in 25 μL with the above final concentrations of components in white polyproplyene plates. Phosphatidyl inositol phosphoacceptor, PtdIns(4,5)P2 (e.g. P4508) can be obtained from Echelon Biosciences, Salt Lake City, Utah. The ATPase activity of the alpha and gamma isozymes may not be greatly stimulated by PtdIns(4,5)P2 under these conditions, it can be omitted from the assay of these isozymes. Test compounds can be dissolved in DMSO and diluted with three-fold serial dilutions. The compound in DMSO (1 μL) may be added per test well, and the inhibition relative to reactions containing no compound, with and without enzyme can be determined. After assay incubation at RT, the reaction can be stopped and residual ATP can be determined by addition of an equal volume of a commercial ATP bioluminescence kit (Perkin Elmer EasyLite, Perkin Elmer, Waltham, Mass.) according to the manufacturer's instructions, and detected using an Analyst GT luminometer.

[1] = tested on: phosphorylation of Akt at Serine 473 in U87 MG cells; experiment: pAkt AlphaScreen (U87 Cell); assay type: cell-based; details: Homo sapiens, U-87 MG, 2 h, 2 h compound, pAkt Ser473 AlphaScreen
Experimental: The pAkt AlphaScreen® assay (PerkinElmer, Waltham, Mass.) determines whether there is phosphorylation of Akt at Serine 473 by recruitment of a phosphospecific antibody. This assay was performed using U87 MG cells. The U87 growth media consists of MEM (Gibco, Carlsbad, Calif.) supplemented with 10% FBS (Gibco), 1× Non-Essential Amino Acids (Gibco) and 1× Penicillin/Streptomycin/Glutamine (Gibco). The cells were maintained weekly using 0.05% Trypsin (Gibco) and replated in 150 mm TC-Treated Culture Dishes (Corning, Corning, N.Y.).
The first day of the assay, the adherent cells were trypsinized, media was added to the loose cells and cells were mixed to a homogenous mixture. 0.5 ml of the homogenous mixture was counted on the Beckman Coulter® Vi-CELL™ XR (Fullerton, Calif.). 50 frames of cells were counted and the number of viable cells was determined. The cells were then diluted to 0.25 million cells per ml, and centrifuged at 200 rcf for 5 minutes. The media was removed and the cells were reconstituted in fresh media for plating. The cells were plated at 20 μl per well on the PerkinElmer® Flexprop PLUS in Low Volume 384 Well White Tissue Culture Plates (Corning) with a final cell density of 5K cells per well. The plates were incubated overnight at 37° Celsius, 5% CO2.
On the second day, the compound plates were prepared, the cells were treated with compound and the pAkt reaction mix was added to the cell lysate. 384 well compound plates were prepared containing 1 μl of compound per well starting at 5 mM and diluted 1:2 across the row, resulting in a 22 well serial dilution. 39 μl of growth media was added to the compound plate in rows 1-22 using the PerkinElmer® FlexDrop PLUS resulting in a DMSO concentration of 2.5%. The cell plates and diluted compound plates were put onto the VELOCITY11™ VPREP™ 384 ST where the compound plate was mixed and 5 μl of serially diluted compound or controls was added to the cell plate. The final concentration of the compounds was 25 μM serially diluted to 11.9 pM in 0.5% DMSO. The cell plates were then incubated with compound for two hours at 37° Celsius, 5% CO2. After two hours, the media in the cell plates was aspirated using the BioTek® ELx405HT plate washer (Winooski, Vt.) removing the majority of media and compound without disturbing the adherent U87 cells. The following assay reagents are components of the SureFire® Akt (Ser 473) Phosphorylation 50K Point Kit (TGR BioSciences, Adelaide, Australia) and an IgG Detection Kit (PerkinElmer, Waltham, Mass.). 5 μl of 1× Lysis Buffer was added to each well using the PerkinElmer® FlexDrop PLUS. The plates were then incubated at room temperature on a shaker for ten minutes. The AlphaScreen® reaction was prepared under low light conditions (subdued or green light) including p-Akt (Ser 473) Reaction Buffer, Dilution Buffer, Activation Buffer, Acceptor Beads and Donor Beads at a ratio of 40:20:10:1:1 respectively. The AlphaScreen® reaction was added to the cell lysate at 6 μl per well using the PerkinElmer® FlexDrop PLUS. The plates were placed in a humid environment to reduce edge effects and incubated overnight at room temperature with restricted air flow in the dark.
On the final day of the experiment, the plates were read on the PerkinElmer® EnVision™ 2103 Multilable Reader using the standard AlphaScreen® readout. The POC is calculated and the data is analyzed to report the IC50 IP for pAkt at Serine 473.

Row | SMILES | IC50 (PI3Kα) [nM] | IC50 [1] [nM]
1 | CC(=O)Nc1cn2nc(-c3ccnc(F)c3)ccc2n1 [Example 3, N-(6-(2-Fluoropyridin-4-yl)imidazo[1,2-b]pyridazin-2-yl)acetamide] | 782 | 
2 | CC(=O)Nc1cn2nc(-c3cccc(N)c3)ccc2n1 [Example 5, N-(6-(3-Aminophenyl)imidazo[1,2-b]pyridazin-2-yl)acetamide] | 982 | 
3 | CC(=O)Nc1cn2nc(-c3cccc(NS(=O)(=O)c4cccc5cnccc45)c3)ccc2n1 [Example 6, N-(6-(3-(Isoquinoline-5-sulfonamido)phenyl)imidazo[1,2-b]pyridazin-2-yl)acetamide] | 96 | 
4 | CC(=O)Nc1cn2cc(-c3cncc(N)c3)ccc2n1 [Example 14, N-(6-(5-Aminopyridin-3-yl)H-imidazo[1,2-a]pyridin-2-yl)acetamide] | 214 | 
5 | CC(=O)Nc1cn2cc(-c3cncc(NCCC(C)(C)C)c3)ccc2n1 [Example 18, N-(6-(5-(3,3-Dimethylbutylamino)pyridin-3-yl)H-imidazo[1,2-a]pyridin-2-yl)acetamide] | 211 | 
6 | COc1cc(-c2ccc3nc(NC(C)=O)cn3n2)cnc1OC [Example 20, N-(6-(5,6-Dimethoxypyridin-3-yl)imidazo[1,2-b]pyridazin-2-yl)acetamide] | 14 | 115
7 | CC(=O)Nc1nc2ccc(-c3cnc(Cl)c(NS(C)(=O)=O)c3)nn2c1I [Example 21, N-(6-(6-Chloro-5-(methylsulfonamido)pyridin-3-yl)-3-iodoimidazo[1,2-b]pyridazin-2-yl)acetamide] | 33 | 2180
8 | CC(=O)Nc1nc2ccc(-c3cnc(Cl)c(NS(C)(=O)=O)c3)nn2c1-c1cccc(F)c1 [Example 22, N-(6-(6-Chloro-5-(methylsulfonamido)pyridin-3-yl)-3-(3-fluorophenyl)imidazo[1,2-b]pyridazin-2-yl)acetamide] | 15 | 3200
9 | CS(=O)(=O)Nc1cc(-c2ccc3nc(N)c(-c4cccc(F)c4)n3n2)cnc1Cl [Example 23, N-(5-(2-Amino-3-(3-fluorophenyl)imidazo[1,2-b]pyridazin-6-yl)-2-chloropyridin-3-yl)methanesulfonamide] | 102 | 55
10 | CC(=O)Nc1nc2ccc(-c3cnc(Cl)c(NS(C)(=O)=O)c3)nn2c1-c1ccc(F)c(C(=O)N2CCOCC2)c1 [Example 24, N-(6-(6-chloro-5-(methylsulfonamido)pyridin-3-yl)-3-(4-fluoro-3-(morpholine-4-carbonyl)phenyl)imidazo[1,2-b]pyridazin-2-yl)acetamide] | 93 | ≥ 25000
11 | CS(=O)(=O)Nc1cc(-c2ccc3nc(N)c(-c4ccc(F)c(C(=O)O)c4)n3n2)cnc1Cl [Example 25, 5-(2-Amino-6-(6-chloro-5-(methylsulfonamido)pyridin-3-yl)imidazo[1,2-b]pyridazin-3-yl)-2-fluorobenzoic acid] | 1170 | ≥ 25000
12 | CC(=O)Nc1nc2ccc(-c3cnc(Cl)c(NS(C)(=O)=O)c3)nn2c1-c1ccncc1 [Example 26, N-(6-(6-Chloro-5-(methylsulfonamido)pyridin-3-yl)-3-(pyridin-4-yl)imidazo[1,2-b]pyridazin-2-yl)acetamide] | 9 | 6530
13 | Nc1cn2cc(-c3cnc(Cl)c(NS(=O)(=O)c4ccc(F)cc4)c3)ccc2n1 [Example 29, N-(5-(2-Aminoimidazo[1,2-a]pyridin-6-yl)-2-chloropyridin-3-yl)-4-fluorobenzenesulfonamide] | 64 | 
14 | CC(=O)Nc1nc2ccc(-c3cnc(Cl)c(NS(=O)(=O)c4cccc(OC(F)F)c4)c3)nn2c1-c1ccncc1 [Example 44, N-(6-(6-Chloro-5-(3-(difluoromethoxy)phenylsulfonamido)pyridin-3-yl)-3-(pyridin-4-yl)imidazo[1,2-b]pyridazin-2-yl)acetamide] |  | 7480
15 | Nc1nc2ccc(-c3cnc(Cl)c(NS(=O)(=O)c4cccc(OC(F)F)c4)c3)nn2c1-c1ccncc1 [Example 45, N-(5-(2-Amino-3-(pyridin-4-yl)imidazo[1,2-b]pyridazin-6-yl)-2-chloropyridin-3-yl)-3-(difluoromethoxy)benzenesulfonamide] |  | 27
16 | CC(=O)Nc1nc2ccc(-c3cnc(Cl)c(NS(=O)(=O)c4cccc(OC(F)F)c4)c3)nn2c1-c1ccnc(C)c1 [Example 46, N-(6-(6-Chloro-5-(3-(difluoromethoxy)phenylsulfonamido)pyridin-3-yl)-3-(2-methylpyridin-4-yl)imidazo[1,2-b]pyridazin-2-yl)acetamide] |  | 5790
17 | Cc1cc(-c2c(N)nc3ccc(-c4cnc(Cl)c(NS(=O)(=O)c5cccc(OC(F)F)c5)c4)nn23)ccn1 [Example 47, N-(5-(2-Amino-3-(2-methylpyridin-4-yl)imidazo[1,2-b]pyridazin-6-yl)-2-chloropyridin-3-yl)-3-(difluoromethoxy)benzenesulfonamide] |  | 14
18 | CC(=O)Nc1nc2ccc(-c3cnc(Cl)c(NS(=O)(=O)c4ccc(F)cc4)c3)nn2c1-c1ccncc1 [Example 48, N-(6-(6-Chloro-5-(4-fluorophenylsulfonamido)pyridin-3-yl)-3-(pyridin-4-yl)imidazo[1,2-b]pyridazin-2-yl)acetamide] |  | 18
19 | CC(=O)Nc1nc2ccc(-c3cnc(Cl)c(NS(=O)(=O)c4cccc(OC(F)F)c4)c3)nn2c1-c1cccnc1 [Example 49, N-(6-(6-Chloro-5-(3-(difluoromethoxy)phenylsulfonamido)pyridin-3-yl)-3-(pyridin-3-yl)imidazo[1,2-b]pyridazin-2-yl)acetamide] |  | 3900
20 | Nc1nc2ccc(-c3cnc(Cl)c(NS(=O)(=O)c4cccc(OC(F)F)c4)c3)nn2c1-c1cccnc1 [Example 50, N-(5-(2-Amino-3-(pyridin-3-yl)imidazo[1,2-b]pyridazin-6-yl)-2-chloropyridin-3-yl)-3-(difluoromethoxy)benzenesulfonamide] |  | 118
21 | Nc1nc2ccc(-c3cnc(Cl)c(NS(=O)(=O)c4cccc(OC(F)F)c4)c3)nn2c1C1=CCNCC1 [Example 51, N-(5-(2-Amino-3-(1,2,3,6-tetrahydropyridin-4-yl)imidazo[1,2-b]pyridazin-6-yl)-2-chloropyridin-3-yl)-3-(difluoromethoxy)benzenesulfonamide] |  | 439
22 | CC(=O)Nc1cn2cc(-c3ccnc(Cl)n3)ccc2n1 [Example 53, N-(6-(2-Chloropyrimidin-4-yl)H-imidazo[1,2-a]pyridin-2-yl)acetamide] | 1860 | 
